Test results taken from patent US20080031868A1, “HUMAN LYSOZYME MEDICINE, ITS MANUFACTURING METHOD AND APPLICATION THEREOF” (priority 2005, published 2008).

Key:
No. 04 Coronavirus [1] = assay: organism not typed; assay type: cell-based
Protocol: HELA cells were seeded on 96-well cultivation plates at the concentration of 400,000/ml and grown to monolayer at 37° C. in 5% CO2 incubator for 24 hours. […] Then 100 TCID50coronavirus liquid were added to HELA cells. At the same time reference cell and reference virous were cultivated at 37° C. in 5% CO2 incubator for 5 to 7 days. At the same time normal cell reference and virous reference were cultivated at 37° C. in 5% CO2 incubator for 5 to 7 days. Inverted microscope was used everyday to observe the cytopathic effect (CPE) of virus. The determination were ended according to the appearance of “+++-++++”. […] The determination was repeated three times.

HELA cell = assay: Toxicity to HELA cell (CPE, Reed-Muench)
Protocol: 1. Determination of the Toxicity of Recombinant Human Lysozyme to HELA Cell:
HELA cells were seeded on 96-well culture plates at the concentration of 400,000/mi and grown at 37° C. in a 5% CO2 incubator for 2 hours. 100 μl recombinant human lysozyme which were double-diluted from 6000 ug/ml to 11.7 ug/ml and positive reference medicine which were double-diluted from 6000 ug/ml to 11.7 ug/ml were respectively added to 3 wells per concentration. At the same time the reference cells were cultivated at 37° C. in a 5% CO2 incubator for 6 days. Inverted microscope was used everyday to observe the cytopathic effect (CPE). The cytopathic effect under 25% was recorded as “+”, the cytopathic effect under 26%˜50% was recorded as “++”, the cytopathic effect under 51%˜75% was recorded as “+++” and the cytopathic effect under 76%˜100% was recorded as “++++”. Drug median toxic dose (TD50) and minimum toxic dose (TD0) were calculated by using Reed-Muench method.

[2] = system: bronchus pneumonia of mice by sucking the hydrochloric acid; assay: Bronchus pneumonia (bronchus lung injury) of mice by sucking atomized hydrochloric acid; assay type: in vivo, Kunming mice
Protocol: D. The effect of human lysozyme to bronchus pneumonia of mice by sucking the hydrochloric acid:
50 mice were equally divided to 5 groups at random, selecting randomly 4 groups among them to make the model of the mice atomized hydrochloric acid.
Each batch of 10 mice was put in Glass desiccator which equipped the self-made atomizer contained 1 N HCI solution. The principle of electronic supra-frequency shaker was used to atomizate hydrochloric acid, then it was inspired for 1 hour by mice to make model of inspiring bronchus lung injury. Its mechanism is that inspiring acidoid can cause adhesion of leucocyte and increasing expression of ICAM-1 and permeability of endotheliocyte and cellula epithelialis to protein, thereby to cause pneumochysis. Otherwise inspiring acidoid can cause the release of phlegmonosis cytokine. Assembling in lung and reciprocal activation of these cytokine and neutrophilic leukocyte can induce cell adhesion and tissue damage.
40 mice models were gathered and then randomly divided to 4 groups. 3 groups were treated with drug, 1 group were treated as model group.
The concentration of recombinant human lysozyme medicine was set at 15000 u/ml in clinical atomization therapy. The dose was 15000 u per time once daily, I.e 0.5 mg per time. The dose was 1.3×10^−3mg a mice (calculated by weight of 20 g). Human ventilatory capacity (9000 ml/min) corresponded with 375 times of mice ventilatory capacity (24 ml/min). Human single dose (0.5 mg/70 kg) corresponded with 384 times of mice dose (1.3×10^−3 mg/20 g). Two folds between ventilatory capacity and single dose were closed, so clinical human dose was used for atomization therapy of mice. Availability of clinical inspiring lysozyme atomized was higher than breathing amount of mice by itself in atomizer. To ensure the breathing amount of lysozyme, the breathing time were extended for 1 hour. Based on 0.5 mg/ml as low dose, the concentration of 1.0 mg/ml and 2.0 mg/ml were set respectively as middle and high dose. The mice were put into the glass desiccator and then treated with human lysozyme atomized in the compression sprayer (PARL.BOY) once daily, and continued 5-10 days (shown in FIG. 2).
As atomization was treated to the 5th and 10th day, half animals (5) of every group were dissected, then the lung tissues were weighed and the lung coefficients were calculated according to the weight. Pathological changes of appearance and the lung tissue were observed respectively by naked eye and pathological section.

No. 04 Coronavirus [3] = assay: Inhibition on No. 04 Coronavirus in HELA cells (CPE method); assay type: cell-based
Protocol: HELA cells were seeded on 96-well cultivation plates at the concentration of 400,000/ml and grown to monolayer at 37° C. in 5% CO2 incubator for 24 hours. After removal of cultivation liquid, coronavirus liquid were added to HELA cells and absorbed at 37° C. in 5% CO2 incubator for 2 hours. […] At the same time reference cells and reference virous were cultivated at 37° C. in 5% CO2 incubator for 5 to 7 days. Inverted microscope was used everyday to observe the cytopathic effect (CPE) of virus. The determination were ended according to the appearance of “+++-++++”. […] The determination was repeated three times.

[4] = system: drug-resistant suppurative streptococcus; assay: Acute or chronic suppurative faucitis model of mice, upper respiratory tract infection; assay type: in vivo
Excerpt: B. Preparation of the acute or chronic suppurative faucitis model of little mice infected by the drug-resistant suppurative streptococcus with the upper respiratory tract:
(§1) 10 healthy Kunming mice (18˜22 g), male and female, were infected by the drug-resistant suppurative streptococcus with the upper respiratory tract in way of spraying which induced the acute or chronic suppurative faucitis of mice, and then promptly treated with aerosol (powder or liquid) at the dose of 30000 u/ml/20 g and give medicines three times a day. Observe for one week after infecting and record the efficient rate of mice. […]

[5] = system: drug-resistant suppurative streptococcus; assay: Amygdalitis model of mice, upper respiratory tract infection; assay type: in vivo
Excerpt: C. The preparation of the amygdalitis model of mice infected by the drug-resistant suppurative streptococcus with the upper respiratory tract:
as §1, with “female,” for “female, were”, “induce” for “induced”, “amygdalitis” for “acute or chronic suppurative faucitis”, “mice,” for “mice, and”, “suck” for “treated with”, “according to” for “at the dose of”

[6] = prevention: drug absorbed 2.5 hours before 100 TCID50 virus, mean of thrice test
[7] = high dosage 2.0 mg/ml, atomization treated for 5 days
[8] = high dosage 2.0 mg/ml, atomization treated for 10 days
[9] = low dosage 0.5 mg/ml, atomization treated for 5 days
[10] = low dosage 0.5 mg/ml, atomization treated for 10 days
[11] = median dosage 1.0 mg/ml, atomization treated for 5 days
[12] = median dosage 1.0 mg/ml, atomization treated for 10 days
[13] = inhibition: drug added after virus absorbed 2 hours, mean of thrice test
[14] = 10 mice, aerosol 30000 u/ml/20 g three times a day, one week
[15] = atomized solution and inhalation

Human lysozyme: gene recombinant Human Lysozyme (HLZ), active unit 30000 u/mg, batch number 020110; given atomized / as aerosol
median inhibitory concentration (IC50) (No. 04 Coronavirus [1]; [6]): 5.9 ± 0 µg/mL
minimum inhibitory concentration (MIC) (No. 04 Coronavirus [1]; [6]): 11.7 ± 0 µg/mL
therapeutic index (TI) (No. 04 Coronavirus [1]; prevention: drug before virus): 64
median toxic dose (TD50) (HELA cell): 1500 ± 0 µg/mL
minimum toxic dose (TD0) (HELA cell): 750 ± 0 µg/mL
effect on mice model of bronchus lung injury caused by inspiring hydrochloric acid ([2]; atomization): validated effective
Lung coefficient (g/g) × 10^−3 [2, 7]: 9.1 ± 1.00 (g/g) × 10^−3
Weight [2, 7]: 29.4 ± 3.3 g
Lung coefficient (g/g) × 10^−3 [2, 8]: 8.32 ± 1.84 (g/g) × 10^−3
Weight [2, 8]: 31.2 ± 2.0 g
pathohistology observation of bronchiole and bronchia in lung ([2]; high dosage group, 5 days): little infiltration of a few monocytes and lymphocytes in bronchus between lobules, and a few phlegmasia cells and secretion in part bronchioles
pathological section: animals changed pathologically ([2]; high dosage group, 5 days): 2/5
pathological section: animals normal ([2]; high dosage group, 5 days): 3/5
Lung coefficient (g/g) × 10^−3 [2, 9]: 7.30 ± 0.43 (g/g) × 10^−3
Weight [2, 9]: 29.6 ± 1.6 g
Lung coefficient (g/g) × 10^−3 [2, 10]: 7.10 ± 0.61 (g/g) × 10^−3
Weight [2, 10]: 30.7 ± 3.0 g
pathohistology observation of bronchiole and bronchia in lung ([2]; low dosage group, 5 days): two spalling of epithelium mucosae in bronchioles and bronchia of one lung tissue, a little erythrocytes in bronchiole lumina of another lung tissue, and normality in the others
pathological section: animals kept normally ([2]; low dosage group, 5 days): 4/5
Lung coefficient (g/g) × 10^−3 [2, 11]: 7.8 ± 0.65 (g/g) × 10^−3
Weight [2, 11]: 29.2 ± 2.4 g
Lung coefficient (g/g) × 10^−3 [2, 12]: 8.30 ± 1.40 (g/g) × 10^−3
Weight [2, 12]: 30.6 ± 2.2 g
pathohistology observation of bronchiole and bronchia in lung ([2]; median dosage group, 5 days): little infiltration of a few monocytes and lymphocytes around part bronchioles, intactness of upper strata wall of most bronchioles tunica mucosa, spalling of a few epithelium mucosae
pathological section: animals kept normally ([2]; median dosage group, 5 days): 5/5
therapeutic index (TI) (No. 04 Coronavirus [3]; inhibition: drug added after virus): 16
median inhibitory concentration (IC50) (No. 04 Coronavirus [3]; [13]): 23.4 ± 0 µg/mL
minimum inhibitory concentration (MIC) (No. 04 Coronavirus [3]; [13]): 46.8 ± 0 µg/mL
Efficient % [4, 14]: 100%
Healing [4, 14]: 8
Invalid [4, 14]: 0
Valid [4, 14]: 2
curative effect to acute or chronic suppurative faucitis of mice [4, 15]: obvious curative effect
Efficient % [5, 14]: 100%
Healing [5, 14]: 8
Invalid [5, 14]: 0
Valid [5, 14]: 2
curative effect to the amygdalitis of mice [5, 15]: obvious curative effect
